According to US4745111A, “Anti-anxiety, anti-agitation, and anti-sleepless states 4-substituted 10-cyanomethylenethieno-[4,3-e]benzoazepine derivatives, compositions, and methods of use therefor” (priority 1985, dated 1988):
“Also recorded” adds a separate entry of the source. Like-named read-outs stand apart in the source and are kept apart here.

Columns and labels:
physostigmin = test: Anticholinergic action (protection from physostigmin lethality) in the mouse; type: in vivo, mouse (female NMRI); details: for ED50: Mus musculus, po, read-out: Anticholinergic action, mouse, ED50 %; for Anticholinergic action (in words): comparison of isomers and with comparative substance
Description: A lethal dose (0.825 mg/kg) of physostigmin is administered subcutaneously to groups of 10 female NMRI mice. The test substances are administered orally 30 minutes before administration of physostigmin. The ED50 % is determined as the dose of substance which protects 50% of the animals from death due to physostigmin.

[1] = tested on: orientation hypermotility; test: Sedative action in the mouse (inhibition of orientation hypermotility); type: in vivo, mouse (female NMRI); details: for ED50: Mus musculus, 0.5 h, female NMRI mice, oral, dose giving 50% reduction in orientation hypermotility, measured from 30 min after administration over 30 min; for Sedative action (in words): comparison of cis/trans isomers and with comparative substance
Description: The substances are administered orally to 4-8 groups of female NMRI mice, each group comprising 3 mice. The orientation hypermotility induced by a new environment was determined photoelectrically 30 minutes after administration of the substances, over a period of 30 minutes.
The ED50 %, i.e. the dose which produces a 50% reduction in orientation hypermotility compared to placebo-treated control animals, is determined.

L-5HTP = test: L-5-HTP antagonism (serotonin antagonism) in the rat; type: in vivo; details: po, read-out: Antimonaminergic action: L-5HTP antagonism, rat, ED50 %
Description: In the rat (316 mg/kg, administered intraperitoneally), L-5-[…] (L-5HTP), a prodrug for serotonin, leads to signs of agitation, such as shaking of the head, tremors and movements of the front feet. The animals are observed for 1 hour after administration of L-5HTP, and the symptoms occurring are quantified every 10 minutes with the aid of a score. The test substances are administered perorally 1 hour before L-5HTP. The ED50 % is calculated as the dose which produces on average a 50% reduction in the scores observed for a control group.

apomorphine = test: Apomorphine antagonistic action (antidopaminergic action), climbing in mice; type: in vivo, mouse; details: for ED50: Mus musculus, po, apomorphine 1.21 mg/kg s.c., dose reducing climbing scores by 50% vs control, read-out: Antimonaminergic action: Apomorphine antagonism, mouse, ED50 %; for Antimonaminergic action (in words): apomorphine (mouse) and L-5HTP (rat) antagonism together, comparison of isomers and with comparative substance
Description: In mice kept in a suitable environment (e.g. a wiremesh cage), apomorphine (1.21 mg/kg, administered subcutaneously) leads to increased climbing. The animals are observed for 30 minutes after administration of apomorphine, and the climbing is quantified every 2 minutes with the aid of a score. The test substances are administered perorally 60 minutes […] administration of apomorphine. The ED50 % is calculated as the dose which reduces the scores by 50% compared with a control group.

[2] = L-5HTP 316 mg/kg i.p., substance p.o. 1 hour before, 50% reduction in scores

SMILES	ED50 (physostigmin)	ED50 [1]	ED50 (L-5HTP; [2])	ED50 (apomorphine)	Anticholinergic action (in words) (physostigmin)	Sedative action (in words) [1]	Antimonaminergic action (in words) (apomorphine)	ED50 (L-5HTP)
CN1CCN(C2=Nc3ccccc3C(=CC#N)c3cscc32)CC1 (mixture of isomers) [Example 1, cis,trans-10-cyanomethylene-4-(4-methylpiperazin-1-yl)-thieno[4,3-e]benzoazepine]	15.8 mg/kg	0.89 mg/kg	0.77 mg/kg	1.7 mg/kg				
CN1CCN(C2=Nc3cc(Cl)ccc3C(=CC#N)c3cscc32)CC1 (mixture of isomers) [Example 3, cis,trans-7-chloro-10-cyanomethylene-4-(4-methylpiperazin-1-yl)-thieno[4,3-e]benzoazepine]	> 21.5 mg/kg	0.89 mg/kg	0.8 mg/kg	~2 mg/kg				
CN1CCN(C2=Nc3cc(F)ccc3C(=CC#N)c3cscc32)CC1 (mixture of isomers) [Example 4, cis,trans-7-fluoro-10-cyanomethylene-4-(4-methylpiperazin-1-yl)-thieno[4,3-e]benzoazepine]	~21 mg/kg	3.27 mg/kg	1 mg/kg	~2 mg/kg				
Cc1ccc2c(c1)N=C(N1CCN(C)CC1)c1cscc1C2=CC#N (mixture of isomers) [Example 5, cis,trans-7-methyl-10-cyanomethylene-4-(4-methylpiperazin-1-yl)-thieno[4,3-e]benzoazepine]	> 21.5 mg/kg	3.75 mg/kg	1.4 mg/kg	~2.1 mg/kg				
CCN1CCN(C2=Nc3ccccc3C(=CC#N)c3cscc32)CC1 (mixture of isomers) [Example 9, cis,trans-10-cyanomethylene-4-(4-ethylpiperazin-1-yl)-thieno[4,3-e]benzoazepine]	> 10 mg/kg	0.81 mg/kg		1 mg/kg				
CN1CCN(C2=Nc3ccccc3/C(=C\C#N)c3cscc32)CC1 [1 (trans), trans-10-cyanomethylene-4-(4-methylpiperazin-1-yl)-thieno[4,3-e]benzoazepine]	5.2 mg/kg	5.1 mg/kg	33 mg/kg	10.9 mg/kg	predominates; also recorded: stronger than that of the comparative substances	fairly weak	fairly weak	
CN1CCN(C2=Nc3cc(Cl)ccc3Nc3ccccc32)CC1 [Clozapine, clozapine, reference compound]		3.8 mg/kg	6.3 mg/kg	11.3 mg/kg				
CN1CCN(C2=Nc3ccccc3/C(=C/C#N)c3cscc32)CC1 [Example 1 (cis), cis-10-cyanomethylene-4-(4-methylpiperazin-1-yl)-thieno[4,3-e]benzoazepine]	> 10 mg/kg	0.35 mg/kg	1 mg/kg	1 mg/kg	greatly reduced	displayed preferentially by the cis isomer	displayed preferentially by the cis isomer	
CN1CCN(C2=Nc3c(Cl)cccc3/C(=C\C#N)c3cscc32)CC1 [Example 16, trans-6-chloro-10-cyanomethylene-4(4-methylpiperazin-1-yl)-thieno[4,3-e]benzoazepine]	> 10 mg/kg	~3 mg/kg						1 mg/kg
